This note sets out measurements from ChEMBL document CHEMBL1201862, “PubChem BioAssay data set” (2004).

Active and inactive are the calls of the source.

One assay concerns P388/ADR. Nature of the assay: cells. Type of assay: functional. As to conditions: Mus musculus.
The subject of the next assay is SN12K1. The assay can be described thus: cells. The class given is functional. As to conditions: Homo sapiens.
For a further assay, the system named is P388. The assay can be described thus: cells. The class given is functional. As to conditions: Mus musculus.
Assay [1] has as its system HEK293. Nature of the assay: NOD1 signaling inhibitors, primary screen, cell-based, luminescence, uHTS (AID 1578). Type of assay: functional. As to conditions: Homo sapiens.
Assay [2] has as its system HEK293. The assay can be described thus: cells. The class given is functional, cell-based. Particulars: Homo sapiens.
The nature of assay [3]: A Cell Based Secondary Assay To Explore Cytotoxicity of Compounds that Sensitize Mycobacterium Tuberculosis to Beta-Lactam Antibiotics. Type of assay: functional.
Assay [4] deals with Vero. The assay can be described thus: host cell cytotoxicity of antiviral hits, dose response, cytotoxicity control for West Nile virus antiviral project, secondary assay (AID 1650). As to conditions: Chlorocebus sabaeus. The class given is functional.
The subject of assay [5] is HEK293. Nature of the assay: cells. As to conditions: Homo sapiens. The class given is functional, cell-based. This is another data set of the same source.
Assay [6] deals with HEK293. The assay can be described thus: NOD2 signaling inhibitors in MDP-stimulated cells, cell-based, uHTS, luminescence (AID 2001). As to conditions: Homo sapiens. Type of assay: functional.
In assay [7] the test system is Vero. The assay can be described thus: cells. Type of assay: functional, cell-based. As to conditions: Chlorocebus sabaeus.
For assay [8], the system named is Vero. The assay can be described thus: cells. The class given is functional. As to conditions: Chlorocebus sabaeus.
The test system of assay [9] is HEK293. The assay can be described thus: cytotoxicity in HEK293T NF-kB-Luc cells, SAR follow-up, cytotoxicity control for NF-kB activator project, cell-based, resazurin fluorescence (AID 493251). The class given is functional. As to conditions: Homo sapiens.
Assay [10] concerns Streptococcus sp. 'group A'. The assay can be described thus: growth inhibition of control SK(-) GAS strain, dose response, counter-screen for streptokinase expression inhibitor project, luminescence, kanamycin, BacTiterGlo, confirmation (AID 1900). The class given is functional, organism-based.
Another assay concerns the target T1, Streptokinase A (Streptococcus pyogenes serotype M1, UniProt P10520).
T1 sequence (P10520 whole entry): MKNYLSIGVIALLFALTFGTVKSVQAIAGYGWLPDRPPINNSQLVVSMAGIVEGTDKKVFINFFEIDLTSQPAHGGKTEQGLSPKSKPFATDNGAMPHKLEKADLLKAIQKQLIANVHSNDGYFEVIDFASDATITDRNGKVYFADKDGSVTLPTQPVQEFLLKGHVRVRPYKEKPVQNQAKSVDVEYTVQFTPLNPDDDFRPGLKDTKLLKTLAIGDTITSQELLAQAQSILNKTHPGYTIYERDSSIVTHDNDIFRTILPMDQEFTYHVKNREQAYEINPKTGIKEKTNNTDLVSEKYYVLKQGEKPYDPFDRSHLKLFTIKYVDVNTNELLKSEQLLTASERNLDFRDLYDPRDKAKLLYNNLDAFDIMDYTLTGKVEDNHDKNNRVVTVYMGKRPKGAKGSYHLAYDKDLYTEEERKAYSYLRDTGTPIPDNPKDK
Nature of the assay: S. pyogenes streptokinase expression inhibitors, potency, dose response, plasminogen activation absorbance, OD405 (AID 1914).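 Also: secreted streptokinase activity via plasminogen activation per viability signal from cell pellet.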 Type of assay: functional, Streptococcus pyogenes M1 GAS.

Assay [11] can be described thus: cytotoxicity in HPDE-C7 cells, cell-based, fluorescence, HTS (AID 430). The class given is functional. Particulars: Homo sapiens.
Assay [12] is described as follows: cytotoxicity in KRAS-transformed pancreatic duct cells, primary screen, cell-based, fluorescence, HTS (AID 431).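 Also: cell line used: HPDE-C7K.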 Type of assay: functional. As to conditions: Homo sapiens.
Assay [13] in a line: growth suppression of PTEN-null colon cells, dose response, cell-based, HCT116 PTEN knockout (AID 1047).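 Also: HCT116 colon tumor cells with PTEN knocked out; cells exposed to compound for 60 hours before readout; potency for loss of cell viability measured by luminescence.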 Type of assay: functional.
Assay [14] in a line: growth suppression of beta-catenin-knockout colon cells, dose response, cell-based, HCT116, human colon tumor (AID 1045).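 Also: HCT116 colon tumor cells with beta catenin knocked out; cells exposed to compound for 60 hours.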 Type of assay: functional.
In a further assay the test system is Streptococcus. The assay can be described thus: Group A Streptococcus viability loss, dose response, counter-screen for streptokinase expression inhibitor project, luminescence, BacTiterGlo (AID 1915).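 Also: potency for reduction of bacterial viability or growth.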 Type of assay: functional, organism-based. For orientation: A counterscreen serves to expose hits that act by an unwanted route or on another target.
The target in another assay is T2, Bcl-2-related protein A1 (Mus musculus, UniProt Q07440).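 Also: confirmatory dose–response counterscreen on Bfl-1, used to check hits from a UBC13 polyubiquitin inhibitor campaign.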
T2 sequence (Q07440 whole entry): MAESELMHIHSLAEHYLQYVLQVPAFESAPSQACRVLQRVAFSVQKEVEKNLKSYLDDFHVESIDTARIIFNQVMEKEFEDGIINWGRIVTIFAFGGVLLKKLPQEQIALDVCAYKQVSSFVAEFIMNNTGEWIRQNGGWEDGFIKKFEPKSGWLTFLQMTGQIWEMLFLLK
The class given is functional.

Assay [15] has as its target T3, Ubiquitin-conjugating enzyme E2 N (Homo sapiens, UniProt P61088).
T3 sequence (P61088 whole entry): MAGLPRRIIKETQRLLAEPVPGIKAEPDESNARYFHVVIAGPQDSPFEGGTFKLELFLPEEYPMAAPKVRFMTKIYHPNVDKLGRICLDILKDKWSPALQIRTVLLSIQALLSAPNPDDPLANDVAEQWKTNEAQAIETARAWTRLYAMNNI
Type of assay: functional.

Assay [16] concerns the target T3, Ubiquitin-conjugating enzyme E2 N. Type of assay: functional. The source holds these as a separate data set.
The target in assay [17] is T4, Long-chain-fatty-acid--AMP ligase FadD28 (Mycobacterium tuberculosis, UniProt P9WQ59).
T4 sequence (P9WQ59 whole entry): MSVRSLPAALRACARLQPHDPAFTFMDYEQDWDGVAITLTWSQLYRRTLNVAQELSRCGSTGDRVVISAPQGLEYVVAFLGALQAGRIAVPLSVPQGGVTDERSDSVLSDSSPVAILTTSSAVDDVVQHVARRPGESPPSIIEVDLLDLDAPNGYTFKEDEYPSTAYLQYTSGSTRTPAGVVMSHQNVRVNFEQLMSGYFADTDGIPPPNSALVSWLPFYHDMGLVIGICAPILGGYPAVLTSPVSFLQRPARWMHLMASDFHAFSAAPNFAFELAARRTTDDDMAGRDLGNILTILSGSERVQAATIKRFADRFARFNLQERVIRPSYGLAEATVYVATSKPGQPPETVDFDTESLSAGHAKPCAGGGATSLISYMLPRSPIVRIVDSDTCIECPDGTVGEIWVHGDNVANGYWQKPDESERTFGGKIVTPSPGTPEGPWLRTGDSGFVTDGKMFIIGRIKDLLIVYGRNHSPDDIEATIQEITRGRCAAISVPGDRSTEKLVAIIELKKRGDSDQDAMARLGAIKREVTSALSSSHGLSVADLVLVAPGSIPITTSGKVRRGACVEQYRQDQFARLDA
Nature of the assay: Fluorescence polarization aasay to screen for inhibitors that compete for the binding of FadD28 to a bisubstrate Measured in Biochemical System Using Plate Reader - 2147-01_Inhibitor_Dose_CherryPick_Activity. The class given is functional, Mycobacterium tuberculosis H37Rv. Background: Fluorescence polarisation rises when a labelled molecule tumbles more slowly, as on binding a larger partner.

Assay [18] deals with BJ. The assay can be described thus: cytotoxicity toward BJ-TERT fibroblasts, dose response, cell-based, RAS-independent, luminescence (AID 1933). The class given is functional. Particulars: Homo sapiens.
Assay [19] relates to BJ. Nature of the assay: cells. Type of assay: functional, cell-based. Particulars: Homo sapiens.
Assay [20] has as its system BJ. The assay can be described thus: cytotoxicity toward BJ-TERT-LT-ST fibroblasts, dose response, cell-based, RAS-independent, luminescence (AID 1935).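 Also: BJ fibroblasts immortalized with TERT plus LT and ST oncogenes.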 The class given is functional. Particulars: Homo sapiens.
A short description of assay [21]: cytotoxicity toward DRD oncogenic fibroblasts, dose response, cell-based, non-viral oncogenic, luminescence (AID 1934). The class given is functional. Particulars: Homo sapiens.
Assay [22] concerns the target T5, Corticotropin-releasing factor receptor 2/Corticotropin-releasing factor-binding protein (Homo sapiens, UniProt P24387+Q13324).
T5 sequence (Q13324 whole entry): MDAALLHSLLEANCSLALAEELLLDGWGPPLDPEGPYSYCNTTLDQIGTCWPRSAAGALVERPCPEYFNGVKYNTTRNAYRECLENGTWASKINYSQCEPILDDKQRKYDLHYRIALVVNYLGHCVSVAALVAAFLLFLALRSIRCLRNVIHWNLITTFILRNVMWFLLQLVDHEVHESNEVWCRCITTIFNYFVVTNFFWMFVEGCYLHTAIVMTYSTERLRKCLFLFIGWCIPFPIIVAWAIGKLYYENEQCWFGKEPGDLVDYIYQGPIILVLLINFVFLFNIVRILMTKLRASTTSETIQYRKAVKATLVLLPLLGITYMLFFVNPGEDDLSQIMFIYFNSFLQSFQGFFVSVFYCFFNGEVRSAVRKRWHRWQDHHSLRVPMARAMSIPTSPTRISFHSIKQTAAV
T5 sequence (P24387 whole entry): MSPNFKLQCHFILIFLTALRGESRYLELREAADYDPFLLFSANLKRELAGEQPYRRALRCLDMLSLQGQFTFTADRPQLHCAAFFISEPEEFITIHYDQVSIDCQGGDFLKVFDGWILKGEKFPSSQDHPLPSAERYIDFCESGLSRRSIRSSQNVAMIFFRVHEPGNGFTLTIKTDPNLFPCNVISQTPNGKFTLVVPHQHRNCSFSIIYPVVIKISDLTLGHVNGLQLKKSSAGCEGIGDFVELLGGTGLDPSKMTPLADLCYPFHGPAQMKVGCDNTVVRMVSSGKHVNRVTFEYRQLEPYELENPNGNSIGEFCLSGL
Nature of the assay: Dose Response confirmation of uHTS hits for small molecule antagonists of the CRF-binding protein and CRF-R2 receptor complex. Particulars: read-out: IC50_Mean. The class given is functional.

For assay [23], the target named is T5, Corticotropin-releasing factor receptor 2/Corticotropin-releasing factor-binding protein. The assay can be described thus: activators of CRF receptor 2 with binding protein – uHTS hits, confirmation (AID 602473). The class given is functional. As to conditions: read-out: EC50_Mean.

As to `O=c1cc[nH]c(=O)[nH]1` [URACIL], the GI50 – broadly, the concentration at which growth is held to half of that of the control – with P388/ADR was 292 µM (inactive); in the assay on SN12K1, 315 µM (inactive); in the assay with P388, 164 µM (inactive).

As to `Cc1ccc2nc3c(C(=O)NCCN(C)C)cccc3cc2c1`, the GI50 was 1.85 µM (inactive) with P388/ADR, 0.968 µM (active) with SN12K1 and 0.414 µM (active) in the assay on P388.

Regarding `Cn1c(/C=C/c2ccc(Cl)cc2)c([N+](=O)[O-])c(=O)n(C)c1=O`, the EC50 in the assay on HEK293 [1] is 16 µM (active). Besides, the IC50 in the assay on HEK293 [2] is 8.13 µM (active); with HEK293 [5] it was > 20 µM (inactive); in the assay with HEK293 [6], 8.84 µM (active); with Vero [7], > 25 µM (active). The figures for the CC50 (in assay [3]; in the assay on Vero [4]; in the assay with Vero [8]) were 30 µM (active), 15.7 µM (active) and 19.1 µM (active), respectively.

For `COc1ccc(-c2nc(CSCC(=O)NC3CC3)c(C)o2)cc1`, the IC50 in the assay on HEK293 [9] was > 80 µM (inactive).

In the case of `CCCCCCCCCCCCCCC[C@@H](O)[C@@H](N)CO` [DIHYDROSPINGOSINE], the EC50 in assay [10] was 1.34 µM (active); on Streptokinase A it was > 150 µM (not active); in [11], 14 µM (active); in [12], 9.93 µM (active); in [13], 8.66 µM (active); in assay [14] it was 7.58 µM (active). Besides, the EC50 with Streptococcus is 8.91 µM (active). In addition, the IC50 on Bcl-2-related protein A1 is > 20 µM (inactive); in assay [15] it was 15.5 µM (active); in assay [16] it was 13.4 µM (active); with Vero [7] it was > 25 µM (active). Moreover, the AC50 (usually the concentration giving half of the maximal activity seen) in assay [17] was 5.6 µM (active).

On to `COc1ccc2c3c1O[C@H]1C[C@@H](O)C=C[C@@]31CCN(C)C2` [GALANTAMINE], for which the GI50 in the assay on P388/ADR, in the assay with SN12K1 and in the assay with P388 was > 150 µM (inactive) in each case.

Turning to `CC1OC1C(=O)C1(O)C(C)C(O)C23OC2(C(O)c2c(O)cccc2C3=O)C1O` (configuration not stated) [CERVICARCIN], the results for the GI50 in the assay with P388/ADR, with SN12K1 and with P388 were 0.18 µM (active), 0.225 µM (active) and 0.144 µM (active), respectively.

For `CN(C)c1ccc(C(=O)N/N=C/C23CC[C@@H](O)CC2(O)CC[C@@H]2[C@@H]3CCC3(C)C(C4=CC(=O)OC4)CCC23O)cc1` (some centres not stated), the EC50 in the assay with BJ [18] is 3.63 µM (active); in the assay on BJ [19], 14.2 µM (active); with BJ [20] it was 19 µM (active); in [21], 3.56 µM (active); in [23], > 53 µM (inactive). Also, the figures for the 50% cytotoxic concentration (CC50) in the assay with Vero [4] and in the assay with Vero [8] were 17.9 µM (active) and 22 µM (active), respectively. Besides, the IC50 with Vero [7] is > 25 µM (active); in assay [22], > 47.1 µM (inactive).
